Read-outs that look alike come from different tables or passages of the source.
Tests used:
soy bean plants = assay: Plant compatibility test using soy bean plants; format: in vivo; conditions: soy bean plants sprayed, 1000 ppm active compound, evaluated 6 days after application; 0% no damages, 100% totally damaged
Method: Plant Compatibility Test Using Soy Bean Plants • Solvent: 24.5 parts by weight of acetone • 24.5 parts by weight of dimethylacetamide • Emulsifier: 1 part by weight of alkylaryl polyglycol ether To produce a suitable preparation of active compound, 1 part by weight of active compound is mixed with the stated amounts of solvent and emulsifier, and the concentrate is diluted with water to the desired concentration. Young plants are sprayed with the preparation of active compound at the stated application rate. The plants are then placed in a greenhouse at approximately 21° C. and a relative atmospheric humidity of approximately 80%. The test is evaluated 6 days after application and comprises plant damages like leaf deformation, chlorosis, necrosis, shoot damage or stunting. The results are summarized in table V. 0% means no damages are observed, while 100% means that the plants are totally damaged.

[1] = Log P by HPLC on reversed phase columns (EEC directive 79/831 Annex V.A8); format: physicochemical; conditions: LC-UV
Method: Measurement of Log P values was performed according to EEC directive 79/831 Annex V.A8 by HPLC (High Performance Liquid Chromatography) on reversed phase columns with the following methods: • ^[a] Log P value is determined by measurement of LC-UV, in an acidic range, with 0.1% formic acid in water and acetonitrile as eluent (linear gradient from 10% acetonitrile to 95% acetonitrile). • ^[b] Log P value is determined by measurement of LC-UV, in a neutral range, with 0.001 molar ammonium acetate solution in water and acetonitrile as eluent (linear gradient from 10% acetonitrile to 95% acetonitrile). […] Lambda-max-values were determined using UV-spectra from 200 nm to 400 nm and the peak values of the chromatographic signals.

[2] = Hydrolysis stability test in homogeneous aqueous solution; format: physicochemical
From the text: Stability Towards Hydrolysis in Homogeneous Aqueous Solution—Hydrolysis Stability Test The chemical stability towards hydrolysis of the phenylamidines described in the prior art is good but an improved stability may be an advantage during the preparation and formulation processes in a large scale. The improved stability towards hydrolysis was proven by a hydrolysis stability test as described below: To produce a suitable preparation of active compound for the hydrolysis stability test, a 1000 ppm stock solution (1 mg/mL) of active compound in acetonitrile is prepared. Three aliquots of 100 μL are pipetted into HPLC vials and diluted with 750 μL acetonitrile. In each vial 850 μL of the appropriate buffer solution (pH4, pH7 and pH9, CertiPUR, Fa. Merck) is added. The buffer containing HPLC vials are incubated in a heated sample tray at 50° C. for 24 hours. The amount A of the active compound is analyzed by HPLC (UV-peak areas at 210 nm) at eight points in time t: 0 min, 140 min, 350 min, 560 min, 770 min, 980 min, 1190 min, 1400 min. The half-life time (T1/2) of each active compound is calculated via linear regression by using the following equations (first order degradation assumed): [formula] [formula] In table III the results of the hydrolysis stability test are shown for the compounds (I-01), (I-02), (I-03) and (I-04) at various pH-values. […] 337 known from WO2008/110278. […] This increased stability will be of advantage during the preparation and formulation processes in a large scale compared to known amidines. The data are to be seen merely by way of example and are not limiting for the purposes of the invention.

[3] = Photolysis stability test; format: physicochemical
From the text: Stability Towards Photolysis—Photolysis Stability Test
The stability towards photolysis of the phenylamidines described in the prior art is good but an improved stability towards photolysis may be an advantage as it could offer a longer lasting efficacy when applied to plants by foliar application. The improved stability towards photolysis was proven by a […] as described below: To produce a suitable preparation of active compound for the photolysis stability test, a 1000 ppm stock solution (1 mg/mL) of active compound in acetonitrile is prepared. Aliquots of 25 μL of this stock solution are pipetted in three wells of a Bio-one microtiter plate (MTP) UVStar 96 (Fa. Greiner, Art. No. 655801). The MTP is dried overnight in the dark and then irradiated at 30° C. and 480 W/m^2 with a UV irradiation device SUNTEST XLS+ or SUNTEST CPS (Fa. Atlas). The amount A of the active compound is analyzed by HPLC (UV-peak areas at 210 nm) at five points in time t: 0 h, 2 h, 4 h, 6 h, 24 h by using the following method: 200 μL acetonitrile is added in the respective well of the MTP and the MTP is sealed with a Bio-one sealing foil, viewseal 80/140 mm (Fa. Greiner, Art. No. 676070). The MTPs are sonicated for 3 minutes and analysed by HPLC. The half-life time (T) of each active compound is calculated via linear regression by using the following equations (first order degradation assumed): […]
In table IV the results of the photolysis stability test are shown for the compounds (I-01), (I-02), (I-03) and (I-04). […] This increased chemical stability towards photolysis will be of advantage as it will offer a longer lasting efficacy when applied to plants by foliar application compared to known amidines. The data are to be seen merely by way of example and are not limiting for the purposes of the invention.

Phakopsora pachyrhizi = assay: In vivo preventive test on Phakopsora (soybeans); conditions: 100 ppm of active ingredient, preventive spray on soybeans, evaluated 7 days after inoculation
Method: Example: In Vivo Preventive Test on Phakopsora Test (Soybeans)
• Solvent: 24.5 parts by weight of acetone • 24.5 parts by weight of dimethylacetamide • Emulsifier: 1 part by weight of alkylaryl polyglycol ether
To produce a suitable preparation of active compound, 1 part by weight of active compound is mixed with the stated amounts of solvent and emulsifier, and the concentrate is diluted with water to the desired concentration.
To test for preventive activity, young plants are sprayed with the preparation of active compound at the stated rate of application. After the spray coating has dried on, the plants are inoculated with an aqueous spore suspension of the causal agent of soybean rust (Phakopsora pachyrhizi) and stay for 24 h without light in an incubation cabinet at approximately 24° C. and a relative atmospheric humidity of 95%.
The plants remain in the incubation cabinet at approximately 24° C. and a relative atmospheric humidity of approximately 80% and a day/night interval of 12 h.
The test is evaluated 7 days after the inoculation. 0% means an efficacy which corresponds to that of the untreated control, while an efficacy of 100% means that no disease is observed.

[4] = acidic range, 0.1% formic acid in water and acetonitrile as eluent, read-out: LogP [a]
[5] = neutral range, 0.001 molar ammonium acetate solution in water and acetonitrile as eluent, read-out: LogP [b]
[6] = pH 7, read-out: T1/2 (pH 7) (converted)
[7] = pH 9, read-out: T1/2 (pH 9) (converted)

Row | chromatographic logP [1, 4] | chromatographic logP [1, 5] | half-life at 58.8 µg/mL [2, 6] [h] | half-life at 58.8 µg/mL [2, 7] [h] | half-life at 25 µg/well [3] [h] | Structure (SMILES) | Necrosis in % (soy bean plants) [%] | efficacy (Phakopsora pachyrhizi)
1 |  |  |  |  |  | CCN(C)/C=N/c1cc(C)c(Oc2ccccc2F)cc1C [Compound no.337] | 90 | 
2 | 1.78 |  |  |  |  | CCN(C)C=Nc1cc(C)c(Oc2ccccc2I)cc1Cl [Example I-06, N′-[2-chloro-4-(2-iodophenoxy)-5-methylphenyl]-N-ethyl-N-methylimidoformamide] |  | 
3 | 1.84 | 4.97 | 64 | 58 | > 200 | CCN(C)C=Nc1cc(C)c(Oc2ccccc2Cl)cc1Br [Example I-04, N′-[2-bromo-4-(2-chlorophenoxy)-5-methylphenyl]-N-ethyl-N-methylimidoformamide] |  | 
4 |  | 3.53 |  |  |  | Cc1cc(N)c(Br)cc1Oc1ccccc1Cl [VIII-04, 2-Bromo-4-(2-chlorophenoxy)-5-methylaniline] |  | 
5 | 1.66 | 4.53 | 68 | 51 | 178 | CCN(C)C=Nc1cc(C)c(Oc2ccccc2F)cc1Br [Example I-03, N′-[2-bromo-4-(2-fluorophenoxy)-5-methylphenyl]-N-ethyl-N-methylimidoformamide] |  | 
6 | 1.66 |  | 52 | 47 | > 200 | CCN(C)/C=N/c1cc(C)c(Oc2ccccc2F)cc1Cl [Example I-01, N′-[2-chloro-4-(2-fluorophenoxy)-5-methylphenyl]-N-ethyl-N-methylimidoformamide] | 20 | at least 70%
7 | 1.76 |  | 160 | 140 | 185 | CCN(C)C=Nc1cc(C)c(Oc2ccccc2F)cc1C(F)F [Example I-02, N′-[2-(difluoromethyl)-4-(2-fluorophenoxy)-5-methylphenyl]-N-ethyl-N-methylimidoformamide] |  | 
8 | 1.58 |  | 51 | 47 |  | CCN(C)C=Nc1cc(C)c(Oc2ccccc2Cl)cc1Cl [Example I-05, N′-[2-chloro-4-(2-chlorophenoxy)-5-methylphenyl]-N-ethyl-N-methylimidoformamide] |  | 
9 | 1.81 |  | 63 | 57 |  | CCN(C)C=Nc1cc(C)c(Oc2ccccc2Br)cc1Br [Example I-07, N′-[2-bromo-4-(2-bromophenoxy)-5-methylphenyl]-N-ethyl-N-methylimidoformamide] |  | 
10 |  |  |  |  |  | CCN(C)/C=N/c1cc(C)c(Oc2ccccc2)cc1C [Compound no. 1] | 90 | 

Row | Structure (SMILES) | chromatographic logP [1, 4] | chromatographic logP [1, 5] | half-life at 58.8 µg/mL [2, 6] [h] | half-life at 58.8 µg/mL [2, 7] [h] | half-life at 25 µg/well [3] [h] | Necrosis in % (soy bean plants) [%] | efficacy (Phakopsora pachyrhizi)
11 | Cc1cc([N+](=O)[O-])c(Br)cc1Oc1ccccc1Cl [VI-04, 4-Bromo-2-(2-chlorophenoxy)-1-methyl-5-nitrobenzene] | 4.68 |  |  |  |  |  | 
12 | Cc1cc([N+](=O)[O-])c(C(F)F)cc1Oc1ccccc1F [VI-02, 1-(Difluoromethyl)-5-(2-fluorophenoxy)-4-methyl-2-nitrobenzene] | 3.97 |  |  |  |  |  | 
